Tests used:
[1] = Competition reaction between ligand (Ls), ZnCl2 and competing chelator (Lc), UV-visible; affinity constants; assay type: binding; conditions: Ls/ZnCl2/Lc 1/1/1 at 15 μM; solvent per ligand as in Table 3
Procedure: An organic solvent (CH3OH, dioxane or DMSO) was added in order to achieve good solubility of all the ligands and metal complexes in the concentrations used in these experiments.
As the concentration [MLs]=x % of C is measured on the UV-visible spectra, the concentrations [Ls]=(1−x) % of C, [MLc]=(1−x) % of C and [Lc]=x % of C can be deduced therefrom and:
In these conditions, [MLs]=[MLc]; [MLs]+[Lc]=Y, y≧50 and:
When log Ks 6, these equations are not used since the percentages of metal ion which is free in the solution or chelated by the solvent or the buffer are not negligible.

[2] = Determination of log D7.4 (1-octanol / Tris-HCl buffer); assay type: physicochemical; conditions: 1-octanol / 20 mM Tris-HCl buffer containing 150 mM NaCl (pH = 7.4) (1/1, v/v)
Procedure: The ligand (2.0 mg) is dissolved in 2 ml of 1-octanol then 2 ml of 20 mM Tris-HCl buffer, pH=7.4 containing 150 mM NaCl are added. After mixing in a vortex for 3 min at ambient temperature, followed by centrifugation for 5 min at 9,000 rpm, the concentration of the ligand in each phase is determined by UV-visible spectrophotometry. The 1-octanol fractions are thus redivided until reproducible values of coefficient of division of obtained. This coefficient is expressed as the decimal logarithm of [(the concentration of ligand contained in the 1-octanol phase)/(the concentration of ligand contained in the buffered aqueous phase)]=log D7.4. Measurements were taken three times.

[3] = biological target: T1, copper complexes of Aβ1-42 peptide (Homo sapiens, UniProt P05067); experiment: Hydrogen peroxide produced by Aβ1-42 in the presence of CuCl2, ascorbate, air and ligand (Amplex Red H2O2/HRP); assay type: biochemical; conditions: CuCl2 0.4 μM, ascorbate 10 μM, air
T1 construct: The β-amyloid peptide Aβ1-42 (Aβ1-42) was synthesised, purified (to a purity greater than 95%); made in house; host or cells: chemical peptide synthesis (no expression host)
Procedure: (§1) FIG. 11: Variation in H2O2 production by copper complexes of Aβ1-42 peptide as a function of the Cu(II)/Aβ stoichiometry. Experiments are carried out for 5 minutes in a sodium phosphate buffer (pH=7.4) in the presence 0.4 μM CuCl2, 10 μM ascorbate and air with or without 0.4 μM of 3 or 7. The H2O2 released is quantified by means of an Amplex-Red H2O2/HRP Assay kit.
(§2) The final concentrations are given. The reactions were carried out in the dark in mM sodium phosphate buffer (pH=7.4). Aβ1-42 (0.2 μM) and CuCl2 (0.4 μM) were pre-incubated for 1 hour at 37° C. while stirring at 1,400 rpm in 375 μl of buffer. Then 2 μl of a solution of ligand to be investigated (0.2; 0.4 or 0.8 μM) in DMSO were added. After incubation for a further hour, 2 μl of an aqueous sodium ascorbate solution (10 μM) were added and incubation was continued for 5 min while stirring. The amount of H2O2 produced is then quantified using an Amplex Red H2O2/HRP Assay Kit (Molecular Probes) while adding a volume of assay reagent to the samples, then incubating them for 1 hour at 37° C. while stirring at 500 rpm. […] Quantification is carried out on the basis of standard curves obtained with known amounts of H2O2.
(§3) The figures in the tables correspond to the amount of H2O2 (expressed in nanomoles) added using an Amplex Red H2O2/HRP Assay kit.

[4] = UV-visible spectrophotometric titration with ZnCl2 (metal/ligand stoichiometry); assay type: binding; conditions: 15 μM ligand; Tris-HCl buffer pH 7.4/organic solvent, per ligand as in Table 3 column Solvent
Procedure: (§4) An organic solvent (CH3OH, dioxane or DMSO) was added in order to achieve good solubility of the ligands and metal complexes in the concentrations used in these experiments. Exact proportions of the organic solvent/buffer mixture are specified for each UV-visible characterisation of the different ligands or metal complexes.
(§5) Aliquot portions of concentrated CuCl2 or ZnCl2 solutions (M) are added to a 15 μM ligand solution so as to induce only negligible variations in volume. After each addition, changes in absorption spectra are observed immediately and are consistent between two additions, which corresponds to a rapid complexing process. The exact absorption values relating to each ligand and the copper(II) or zinc(II) complexes thereof are detailed hereinafter in the Experimental part (in the Synthesis part for ligands and hereinafter for the metal complexes).
(§6) The stoichiometry of the different ligands (L) for Cu(II) or ZN(II) have therefore been determined spectrophotometrically by metal ion titration. In this example, for an M/L ratio increasing from 0 to 1, π→π* with transition, centred at 251 nm for the free ligand, is shifted to a lower energy with a concomitant appearance of an absorption band in the visible region of the spectrum (λmax to 383 nm), which is probably the result of an MLCT transition. For greater M/L ratios, no additional change in the UV-visible absorption spectra is observed.

[5] = Competition reaction between ligand (Ls), CuCl2 and competing chelator (Lc), UV-visible; affinity constants; conditions: Ls/CuCl2/Lc 1/1/1 at 15 μM; solvent per ligand as in Table 3
Procedure: An organic solvent (CH3OH, dioxane or DMSO) was added in order to achieve good solubility of all the ligands and metal complexes in the concentrations used in these experiments. Monitoring has shown that all the ligands and metal complexes examined yield results corresponding to the Beer-Lambert Law in the experimental conditions used.
Lc competing chelators were selected to provide a range of stability constants for the metal ion M presenting intervals of approximately one or two log units, as well as to make it possible for each competition experiment to quantify one of the Ls, MLs, Lcc or MLc species with a UV-vis spectrum wavelength without contaminating the three other species (FIG. 7). […] As the concentration [MLs]=x % of C is measured on the UV-visible spectra, the concentrations [Ls]=(1−x) % of C, [MLc]=(1−x) % of C and [Lc]=x % of C can be deduced therefrom and:

Aβ1-42 = biological target: T2, Aβ1-42 (Homo sapiens, UniProt P05067); experiment: Inhibition of the precipitation of Aβ1-42 by the addition of ligand (Micro BCA assay of soluble/aggregated peptide); assay type: biochemical; conditions: Aβ1-42 5 μM, pH 7.4; for CuCl2 % soluble Aβ: 20 μM CuCl2, 1 h 37° C. then 1 h with 200 μM ligand; for FeCl3 % soluble Aβ: 20 μM FeCl3, 1 h 37° C. then 1 h with 200 μM ligand; for ZnCl2 % soluble Aβ: 20 μM ZnCl2, 1 h 37° C. then 1 h with 200 μM ligand; for without metal % soluble Aβ: no metal salt, 1 h 37° C. then 1 h with 200 μM ligand
T2 construct: The β-amyloid peptide Aβ1-42 (Aβ1-42) was synthesised, purified (to a purity greater than 95%); made in house; host or cells: chemical peptide synthesis (no expression host)
Procedure: After a further hour of incubation, the reaction mixture is centrifuged.
Before use, the water [of Milli-Q Millipore quality] and all buffer solutions were treated on Chelex-100 resin (Biorad) (5 mg/ml) and filtered through 0.2 μm filters (Whatman) to remove potential traces of metal ions or particles.
Working solutions of the peptide were prepared by solubilising 1 mg of lyophilised peptide in 500 μl of water and 500 μl of an aqueous NaOH solution pH=12.0, while stirring in a Thermomixer Comfort (Eppendorf). The peptide preparations are subsequently centrifuged for 10 minutes at 9,000 rpm and the supernatant is used as an “Aβ stock” solution. The concentration of peptide in the “Aβ stock” is determined immediately by colorimetric assay using a Micro BCA Protein Assays kit (Pierce) from standard ranges produced using known amounts of bovine serum albumin (BSA) then the Aβ1-42 peptide solution is aliquoted and frozen rapidly in liquid nitrogen prior to being stored at −20° C. until being used.
Salts are generated by adding one hydrochloric acid equivalent per nitrogen group equivalent of the ligand dissolved in DMSO. After evaporation of the solvent, these salts are dissolved at the desired concentration with DMSO and kept at −20° C. until they are used.
The protocol was established from works by: C. S. Atwood et al., J. Neurochem. […] The final concentrations are given. 500 μl of Aβ1-42 (5 μM is set to aggregate in 20 mM Tris-HCl buffer containing 150 mM NaCl (pH=7.4) for 1 hour at 37° C. while stirring at 1,400 rpm in the absence or presence of metal ions: CuCl2, ZnCl2 or FeCl3 (20 μM). Then 50 pi of ligand to be tested (200 μM) dissolved in DMSO are added and the samples are incubated for 1 further hour at 37° C. while stirring at 1,400 rpm. The samples without ligand also receive 50 μl of DMSO. The samples (final volume=550 μ) are subsequently centrifuged for 20 min at 9,000 rpm, and 500 μl of supernatant are removed. The tube containing the precipitation pellet then receives 450 μl of assay buffer/DMSO mixture (91/9, v/v). […] Quantification is carried out on the basis of standard BSA ranges. The amounts of Aβ1-42 actually contained in the pellet and the supernatant are obtained after a correction due to the presence of a residual portion of supernatant in the pellet-containing fraction.
For the control experiments with derivatives comprising a single quinoline residue, […] of ligand were added because complexes of type L2Cu are conventionally used in these cases.

[6] = UV-visible spectrophotometric titration with CuCl2 (metal/ligand stoichiometry); assay type: binding; conditions: 15 μM ligand; Tris-HCl buffer pH 7.4/organic solvent, per ligand as in Table 3 column Solvent
Procedure: as §4, §5, §6

[7] = Hydrogen peroxide produced by Aβ1-42 in the presence of CuCl2, ascorbate, air and ligand (Amplex Red H2O2/HRP); assay type: biochemical; conditions: CuCl2 0.4 μM, ascorbate 10 μM, air
Procedure: as §1, §2, §3

[8] = system: Salmonella tiphimurium TA100; experiment: AMES test, TA100; conditions: value per plate
Description: (§7) AMES test: The method is adapted from D. M. Maron and B. N. Ames, Mutat.
(§8) The test involves evaluating the potential of the tested molecules to induce mutation which is reverse to the histidine locus of these lines. These two lines were provided by Dr. Bruce N. Ames (University of California, Berkeley, USA). They are resistant to Ampicillin and sensitive to Tetracycline. They are not mutant toward rfa, UvγV and UvγA. The line TA98 (his D3052) contains a mutation of reading phase (GC) whereas the line TA100 (his G46) contains a substitution of base pair (GC).
(§9) The compounds to be tested were dissolved in 100% of DMSO (the solvent) and diluted logarithmically (by a factor of 10) so as to obtain 4 test concentrations of 30,000; 3,000; 300 and 30 μg/ml. Each series of 0.1 ml of stock solution to be tested, 0.1 ml of test line and of culture medium with or without 0.5 ml of enzymatic homogenate (S9) of rat liver microsome were mixed with 2 ml of molten agarose (containing 0.5 mM of histidine and 0.5 mM of biotin). This mixture was placed on the surface of a plate of minimal agarose glucose medium (30 ml for each Petri dish) so as to obtain final concentrations of compound to be tested of 3,000; 300; 30 and 3 μγ/plate. The plates were then incubated at 37° C. for 48 hours. […] The revertant colonies of the test lines were counted using a colony counter (Sigma). […] A compound inducing a number of colonies <50% of cells obtained for the solvent alone was deemed to be toxic for the bacteria tested. All the experiments were carried out in triplicate.

[9] = system: Salmonella tiphimurium TA98; experiment: AMES test, TA98; conditions: value per plate
Description: as §7, §8, §9

T1 sequence (P05067 672-713 limits assumed, one chain of several): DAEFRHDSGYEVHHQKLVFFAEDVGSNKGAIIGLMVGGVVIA
T2 sequence (P05067 672-713): as the sequence (P05067 672-713 limits assumed, one chain of several) above

| SMILES | percentage of ZnLs species at equilibrium, competing ligand EDTA [1] [%] | logD at 3 min [2] | amount of H2O2, 0.2 μM Aβ1-42 Cu/Aβ = 2 ([3]; ligand 1 eq/Cu(II) (0.4 μM)) [nmol] | Complex observed by titration with Zn^II (observed L/Zn(II) stoichiometry) [4] | percentage of the CuLs species at equilibrium, competing ligand EDTA [5] [%] | CuCl2 % soluble Aβ (Aβ1-42) [%] | FeCl3 % soluble Aβ (Aβ1-42) [%] | ZnCl2 % soluble Aβ (Aβ1-42) [%] | without metal % soluble Aβ (Aβ1-42) [%] | Complex observed by titration with Cu^II (observed L/Cu(II) stoichiometry) [6] | amount of H2O2, 0.5 μM Aβ1-42 Cu/Aβ = 0.75 ([3]; ligand 1 eq/Cu(II) (0.4 μM)) [nmol] | amount of H2O2, without Aβ1-42 ([7]; ligand 1 eq/Cu(II) (0.4 μM)) [nmol] | percentage of the CuLs species at equilibrium, competing ligand EDDA [5] [%] | TA100 Cytotoxicity ([8]; Addition of S9: no) [µg] | TA100 Cytotoxicity ([8]; Addition of S9: yes) [µg] | amount of H2O2, 0.2 μM Aβ1-42 Cu/Aβ = 2 ([3]; ligand 2 eq/Cu(II)) [nmol] | amount of H2O2, 0.5 μM Aβ1-42 Cu/Aβ = 0.75 ([3]; ligand 2 eq/Cu(II)) [nmol] | amount of H2O2, without Aβ1-42 ([7]; ligand 2 eq/Cu(II)) [nmol] | TA98 Cytotoxicity ([9]; Addition of S9: no) [µg] | TA98 Cytotoxicity ([9]; Addition of S9: yes) [µg] |
| --- | --- | --- | --- | --- | --- | --- | --- | --- | --- | --- | --- | --- | --- | --- | --- | --- | --- | --- | --- | --- |
| COc1ccc2ccc(CCc3ccc4ccc(OC)c(O)c4n3)nc2c1O [Compound 17, 2,2′-(1,2-ethanediyl)-bis[7-(methyloxy)-8-quinolinol]] | 35 | 3.5 ± 0.1 | 0.69 | LZn^II(1/1) | 55 | 38 ± 4 | 38 | 42 ± 4 | 63 ± 3 | LCu^II(1/1) | – | – | – | – | – | – | – | – | – | – |
| CCCCN(c1ccc2cccc(N)c2n1)c1ccc2cccc(N)c2n1 [Compound 23, N-butyl-2,2′-imino-bis(8-quinolineamine)] | – | 2.5 ± 0.1 | 0.69 | – | 30 | 60 ± 4 | 62 | 58 ± 4 | 73 | LCu^II(1/1) | 0.49 | 0.65 | – | – | – | – | – | – | – | – |
| Oc1cccc2ccc(CCCCc3ccc4cccc(O)c4n3)nc12 [Compound 10, 2,2′-(1,4-Butanediyl)-bis(8-hydroxyquinoline)] | 45 | 3.8 ± 0.1 | – | LZn^II(1/1) | 45 | 42 | 43 | 43 | 52 | LCu^II(1/1) | – | – | – | – | – | – | – | – | – | – |
| c1cnc2c(NCCCNc3cccc4cccnc34)cccc2c1 [Compound 13, N,N′-di-8-quinolinyl-1,3-propanediamine] | – | 2.7 ± 0.1 | 2.10 | – | 25 | 55 ± 3 | 66 | 57 | 71 ± 2 | LCu^II(1/1) | 0.70 | 0.89 | 65 | – | – | – | – | – | – | – |
| Oc1c(I)cc(Cl)c2cccnc12 [Clioquinol, reference compound] | – | 3.8 ± 0.1 | 0.89 ± 0.08 | – | – | 55 ± 3 | 51 | 37 | 63 | – | 0.64 | 2.07 | – | 30 | 30 | 0.78 ± 0.06 | 0.57 | 0.54 | 300 | 300 |

— patent US20120277265A1, “NOVEL POLYQUINOLINE DERIVATIVES AND THE THERAPEUTIC USE THEREOF” (CENTRE NATIONAL DE LA RECHERCHE SCIENTIFIQUE (C.N.R.S.), priority 2005, published 2012)
